[UNA] = unlocked nucleic acid; r = 2'-OH (RNA)
Assay: UV thermal melting temperatures of mUNA 12-mer duplexes
Type: physicochemical
Details: for ΔTm (° C.): relative to unmodified duplex; for Tm (° C.)a / Tm (° C.)b: mUNA 12-mer duplexes, 2.0 μM each strand, pH 7.4
Source text: Values were reported as the maximum of the first derivative and are the average of at least two experiments.

Row | Substance | ΔTm (° C.) (1x PBS) [°C] | ΔTm (° C.) (8×PBS) [°C] | Tm (° C.)a (1x PBS) [°C] | Tm (° C.)b (8×PBS) [°C]
1 | AD-511227.1 (sense UACAGUCUAUGU; antisense ACAUAGACUGUA; sense: sugars from the 5' end r5 [UNA]1 r6, backbone not given here; antisense: RNA, backbone not given here) | −16.6 | −17.5 | 35.5 | 43.6
2 | AD-511236.1 (sense TACAGUCTATGT; antisense ACATAGACTGTA; sense: chemistry not given here; antisense: DNA, backbone not given here; sense strand has one mUNA-type uridine (Uun)) |  | −25.5 | <30 | 23.6
3 | AD-511237.1 (sense UACAGUCUAUGU; antisense ACATAGACTGTA; sense: RNA, backbone not given here; antisense: DNA, backbone not given here) |  | 0.0 | 39.1 | 45.1
4 | AD-511246.1 (sense UACAGUCUAUGU; antisense ACATAGACTGTA; sense: chemistry not given here; antisense: DNA, backbone not given here; sense strand has one mUNA-type uridine (Uun)) |  | −20.5 | <30 | 24.6
5 | AD-511247.1 (sense TACAGTCTATGT; antisense ACAUAGACUGUA; sense: DNA, backbone not given here; antisense: RNA, backbone not given here) |  | 0.0 | 42.1 | 49.1
6 | AD-511256.1 (sense TACAGUCTATGT; antisense ACAUAGACUGUA; sense: chemistry not given here; antisense: RNA, backbone not given here; sense strand has one mUNA-type uridine (Uun)) |  | −20.6 | <30 | 28.6
